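Grown in 96-well plates, cells were treated for 48 hours with each compound at five concentrations. Insufficient inhibition: endpoint recorded as highest concentration tested. GI50 is the concentration that inhibits growth by half.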 The source made the active and inactive calls. No stated cut-off is given here; in the data, active = GI50 up to about 1.1 µM and inactive = higher.
How the values were obtained:
Assay in all cases: DTP human tumour cell line panel, 48 h
NCI-H460 = tested on: NCI-H460
HOP-62 = tested on: HOP-62
HT-29 = tested on: HT-29
M14 = tested on: M14
RPMI-8226 = tested on: RPMI-8226
SK-OV-3 = tested on: SK-OV-3
786-0 = tested on: 786-0
CCRF-CEM = tested on: CCRF-CEM
IGROV-1 = tested on: IGROV-1
UACC-62 = tested on: UACC-62
TK-10 = tested on: TK-10
COLO 205 = tested on: COLO 205
OVCAR-3 = tested on: OVCAR-3
HL-60 = tested on: HL-60
UO-31 = tested on: UO-31
SNB-19 = tested on: SNB-19
Malme-3M = tested on: Malme-3M
SR = tested on: SR

Measured: GI50

Cc1ccc(-c2c(N)[n+]([O-])c3ccccc3[n+]2[O-])cc1
inactive: NCI-H460 18.7 µM | HOP-62 17.1 µM | HT-29 12.3 µM | M14 12 µM | RPMI-8226 21.4 µM | SK-OV-3 21.2 µM | 786-0 13.5 µM | CCRF-CEM 47.4 µM | IGROV-1 14.9 µM | UACC-62 7.18 µM | TK-10 18.4 µM | COLO 205 15.2 µM | OVCAR-3 16 µM | HL-60 9.95 µM | UO-31 16.1 µM | SNB-19 12.7 µM | Malme-3M 3.47 µM

O=C(CSc1nnc(-c2ccc(/N=C\c3ccc(Cl)cc3)cc2)o1)Nc1ccccc1Cl
inactive: NCI-H460 > 100 µM | HOP-62 > 100 µM | HT-29 > 100 µM | M14 > 100 µM | RPMI-8226 > 100 µM | SK-OV-3 > 100 µM | 786-0 > 100 µM | CCRF-CEM > 100 µM | SR > 100 µM | UACC-62 > 100 µM | TK-10 > 100 µM | COLO 205 > 100 µM | HL-60 > 100 µM | UO-31 > 100 µM | SNB-19 > 100 µM | Malme-3M > 100 µM

COc1cccc2c1OC1Sc3ccccc3-c3nn(-c4ccccc4)c-2c31 (stereo unspecified)
inactive: NCI-H460 > 100 µM | HOP-62 > 100 µM | HT-29 > 100 µM | RPMI-8226 > 100 µM | SK-OV-3 > 100 µM | 786-0 > 100 µM | CCRF-CEM > 100 µM | IGROV-1 > 100 µM | TK-10 > 100 µM | COLO 205 > 100 µM | OVCAR-3 > 100 µM | HL-60 > 100 µM | UO-31 > 100 µM | Malme-3M > 100 µM

COc1ccc2c(CN3CCCCC3CO)cc3cc(OC)c(OC)cc3c2c1 (stereo unspecified)
inactive: HOP-62 6.43 µM | HT-29 2.43 µM | M14 4.74 µM | RPMI-8226 3.48 µM | SK-OV-3 14.6 µM | 786-0 4.8 µM | CCRF-CEM 3.56 µM | SR 3.72 µM | IGROV-1 13.2 µM | UACC-62 10.4 µM | TK-10 4.7 µM | COLO 205 2.58 µM | OVCAR-3 5.57 µM | HL-60 3.38 µM | UO-31 2.87 µM | SNB-19 4.04 µM | Malme-3M 4.63 µM

COC1OC(CBr)C(OC(=O)c2ccccc2)C(O)C1Br (stereo unspecified)
inactive: NCI-H460 > 100 µM | HOP-62 > 100 µM | HT-29 > 100 µM | M14 > 100 µM | RPMI-8226 > 100 µM | 786-0 > 100 µM | CCRF-CEM > 100 µM | SR > 100 µM | IGROV-1 > 10 µM | UACC-62 > 100 µM | TK-10 > 100 µM | COLO 205 > 100 µM | OVCAR-3 > 100 µM | HL-60 > 100 µM | SNB-19 > 100 µM | Malme-3M > 100 µM

CN(C(=N)c1ccccc1)c1ccccc1
inactive: HT-29 > 100 µM | M14 > 100 µM | RPMI-8226 > 100 µM | SK-OV-3 > 100 µM | 786-0 > 100 µM | CCRF-CEM > 100 µM | IGROV-1 > 100 µM | UACC-62 > 100 µM | TK-10 > 100 µM | COLO 205 > 100 µM | OVCAR-3 > 100 µM | HL-60 > 100 µM | UO-31 > 100 µM | SNB-19 > 100 µM

COc1cc2c(cc1OC)/C(=C\c1ccccc1N)C(=O)OC2
inactive: NCI-H460 14.7 µM | HOP-62 23.3 µM | HT-29 11.8 µM | M14 19.3 µM | RPMI-8226 1.84 µM | SK-OV-3 27.7 µM | 786-0 3.07 µM | CCRF-CEM 2.05 µM | IGROV-1 18.6 µM | UACC-62 16.3 µM | TK-10 20.6 µM | COLO 205 12 µM | OVCAR-3 18.7 µM | HL-60 3.3 µM | UO-31 15.5 µM | SNB-19 16.7 µM | Malme-3M 13.9 µM

O=C(CSc1nnc(Cc2ccccc2)o1)Nc1cccc(Cl)c1
inactive: NCI-H460 > 100 µM | HOP-62 > 100 µM | HT-29 66.2 µM | M14 69 µM | RPMI-8226 72.4 µM | SK-OV-3 > 100 µM | 786-0 96.8 µM | CCRF-CEM 71 µM | IGROV-1 > 100 µM | TK-10 > 100 µM | COLO 205 > 100 µM | OVCAR-3 31.9 µM | HL-60 > 100 µM | UO-31 > 100 µM | SNB-19 > 100 µM | Malme-3M 63.7 µM

NC(=O)NNC/C(Cl)=C(\Cl)C(=O)O
inactive: NCI-H460 > 100 µM | HOP-62 > 100 µM | HT-29 > 100 µM | M14 > 100 µM | RPMI-8226 > 100 µM | SK-OV-3 > 100 µM | 786-0 > 100 µM | CCRF-CEM > 100 µM | IGROV-1 > 100 µM | UACC-62 > 100 µM | TK-10 > 100 µM | COLO 205 > 100 µM | OVCAR-3 > 100 µM | HL-60 > 100 µM | UO-31 > 100 µM | SNB-19 > 100 µM | Malme-3M > 100 µM

C/C(=N\NC(=O)c1ccccc1O)c1c(O)cc(C)oc1=O
inactive: NCI-H460 43.6 µM | HOP-62 98.6 µM | HT-29 > 100 µM | M14 > 100 µM | RPMI-8226 50.4 µM | SK-OV-3 17.4 µM | 786-0 > 100 µM | CCRF-CEM > 10 µM | IGROV-1 34.2 µM | UACC-62 25.6 µM | TK-10 > 100 µM | COLO 205 > 100 µM | OVCAR-3 41.2 µM | HL-60 63.2 µM | UO-31 31.5 µM | SNB-19 63.5 µM | Malme-3M 99.5 µM

NCCSSCc1ccccc1CSSCCN
inactive: NCI-H460 > 100 µM | HOP-62 > 100 µM | HT-29 97.1 µM | M14 > 100 µM | RPMI-8226 67.8 µM | SK-OV-3 > 100 µM | 786-0 > 100 µM | SR 41.7 µM | IGROV-1 > 100 µM | UACC-62 > 100 µM | TK-10 > 100 µM | COLO 205 > 100 µM | OVCAR-3 > 100 µM | HL-60 8.02 µM | UO-31 > 100 µM | SNB-19 > 100 µM | Malme-3M 72.3 µM

Cc1cccc(C)c1N1C(=O)C(=O)C(c2nc3ccccc3s2)/C(=N/NC(=O)NN)C1=O (stereo unspecified)
inactive: NCI-H460 > 100 µM | HOP-62 > 100 µM | HT-29 > 100 µM | M14 > 100 µM | SK-OV-3 > 100 µM | 786-0 > 100 µM | CCRF-CEM > 100 µM | SR > 100 µM | IGROV-1 > 100 µM | UACC-62 > 100 µM | TK-10 > 100 µM | COLO 205 > 100 µM | OVCAR-3 > 100 µM | HL-60 > 100 µM | UO-31 > 100 µM | SNB-19 > 100 µM | Malme-3M > 100 µM

c1ccc(CCCC2Sc3cccc4cccc(c34)S2)cc1
inactive: NCI-H460 > 100 µM | HOP-62 > 100 µM | HT-29 78.9 µM | M14 > 100 µM | RPMI-8226 52.7 µM | SK-OV-3 > 100 µM | 786-0 > 100 µM | CCRF-CEM > 100 µM | IGROV-1 > 100 µM | UACC-62 > 100 µM | TK-10 > 100 µM | COLO 205 > 100 µM | OVCAR-3 > 100 µM | HL-60 64.6 µM | UO-31 > 100 µM | SNB-19 > 100 µM | Malme-3M 78.3 µM

O=c1nc(NC(c2ccccc2)(c2ccccc2)c2ccccc2)ccn1CCO
inactive: NCI-H460 57 µM | HOP-62 > 100 µM | HT-29 60 µM | RPMI-8226 49.8 µM | 786-0 > 100 µM | SR 36.3 µM | IGROV-1 > 100 µM | TK-10 > 100 µM | COLO 205 > 100 µM | OVCAR-3 40.2 µM | HL-60 41 µM | UO-31 > 100 µM | SNB-19 > 100 µM | Malme-3M > 100 µM

O=C(O)CCSC(=O)Nc1ccccc1Cl
inactive: NCI-H460 > 100 µM | HOP-62 > 100 µM | HT-29 > 100 µM | M14 > 100 µM | RPMI-8226 > 100 µM | SK-OV-3 > 100 µM | 786-0 > 100 µM | CCRF-CEM > 100 µM | SR > 100 µM | IGROV-1 > 100 µM | UACC-62 > 100 µM | TK-10 > 100 µM | COLO 205 > 100 µM | OVCAR-3 > 100 µM | UO-31 > 100 µM | SNB-19 > 100 µM | Malme-3M > 100 µM

CCOC(=O)C1(c2ccccc2)CCC(=O)CC1
inactive: NCI-H460 > 100 µM | HOP-62 > 100 µM | HT-29 > 100 µM | M14 > 100 µM | SK-OV-3 > 100 µM | 786-0 > 100 µM | CCRF-CEM > 100 µM | IGROV-1 > 100 µM | UACC-62 > 100 µM | TK-10 > 100 µM | COLO 205 > 100 µM | OVCAR-3 > 100 µM | HL-60 > 100 µM | UO-31 > 100 µM | SNB-19 > 100 µM | Malme-3M > 100 µM

CC1=C(c2cc(C(=O)Nc3nccs3)nc(NC#N)n2)Sc2ccccc2N1
inactive: NCI-H460 > 100 µM | HOP-62 > 100 µM | HT-29 > 100 µM | M14 > 100 µM | RPMI-8226 > 100 µM | 786-0 > 100 µM | CCRF-CEM 79.1 µM | SR > 100 µM | IGROV-1 > 100 µM | UACC-62 > 100 µM | TK-10 > 100 µM | COLO 205 > 100 µM | OVCAR-3 > 100 µM | HL-60 > 100 µM | UO-31 > 100 µM | SNB-19 > 100 µM | Malme-3M > 100 µM
